From ChEMBL document CHEMBL5143564, “PES derivative PESA is a potent tool to globally profile cellular targets of PES” (Bioorg Med Chem Lett, 2022)
Activity calls are given as the source filed them. The calls are words filed in the database; no cut-off is given here.

Key:
[1] = target: T1, Tubulin alpha (Homo sapiens) (UniProt P0DPH7+P68366+Q71U36+P68363+Q9BQE3+Q6PEY2+A6NHL2+Q9NY65); assay: Binding affinity to alpha-tubulin in human DOHH-2 cells by MS analysis; format: cell-based
[2] = target: Coronin-1A (Homo sapiens) (UniProt P31146); assay: Binding affinity to coronin-1A in human MDA-MB-453 cells measured after 6 hrs by pull-down assay; format: cell-based; conditions: dose <= 20.0 µM, DDE = dose-dependent effect
Sequence of Coronin-1A (Homo sapiens) (P31146 whole entry): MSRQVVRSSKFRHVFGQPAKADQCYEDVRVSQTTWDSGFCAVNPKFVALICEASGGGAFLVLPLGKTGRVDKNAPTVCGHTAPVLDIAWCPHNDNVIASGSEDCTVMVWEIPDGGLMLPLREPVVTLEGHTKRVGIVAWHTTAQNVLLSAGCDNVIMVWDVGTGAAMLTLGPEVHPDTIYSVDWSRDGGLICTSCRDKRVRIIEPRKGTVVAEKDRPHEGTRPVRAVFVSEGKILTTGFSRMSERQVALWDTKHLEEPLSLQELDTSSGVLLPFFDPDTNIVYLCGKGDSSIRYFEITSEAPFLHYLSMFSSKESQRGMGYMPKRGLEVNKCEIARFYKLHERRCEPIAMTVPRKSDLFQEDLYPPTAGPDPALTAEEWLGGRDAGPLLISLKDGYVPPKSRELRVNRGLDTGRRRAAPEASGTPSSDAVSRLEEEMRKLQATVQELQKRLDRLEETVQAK

[3] = system: DOHH-2; assay: Up regulation of HSP70 expression in human DOHH-2 cells at 8 uM measured after 4 to 24 hrs by Western blot analysis; format: functional, cell-based; conditions: time 4-24 hrs
[4] = target: Tubulin beta (Homo sapiens) (UniProt P68371+Q9H4B7+Q13509+P04350+Q3ZCM7+P07437+Q13885+Q9BVA1+Q9BUF5+A6NNZ2); assay: Binding affinity to beta-tubulin in human DOHH-2 cells measured after 6 hrs by pull-down assay; format: cell-based; conditions: DDE = dose-dependent effect
[5] = target: T2, Thioredoxin-dependent peroxide reductase, mitochondrial (Homo sapiens) (UniProt P30048); assay: Binding affinity to PRDX3 in human DOHH-2 cells measured after 6 hrs by pull-down assay; format: cell-based; conditions: DDE = dose-dependent effect
T2 sequence (whole entry): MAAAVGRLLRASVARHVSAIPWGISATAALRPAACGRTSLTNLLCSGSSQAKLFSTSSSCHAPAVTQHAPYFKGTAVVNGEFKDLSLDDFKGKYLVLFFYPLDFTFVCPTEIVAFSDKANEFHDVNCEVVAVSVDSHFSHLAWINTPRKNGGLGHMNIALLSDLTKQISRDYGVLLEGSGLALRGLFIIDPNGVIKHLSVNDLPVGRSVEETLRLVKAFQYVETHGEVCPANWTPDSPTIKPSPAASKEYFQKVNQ

[6] = system: HEK-293T; assay: Cytotoxicity against HEK293T cells up to 20 uM measured after 24 hrs; format: toxicity, cell-based; conditions: human
[7] = target: T3, Protein disulfide-isomerase A6 (Homo sapiens) (UniProt Q15084); assay: Binding affinity to PDIA6 in human DOHH-2 cells measured after 6 hrs by pull-down assay; format: cell-based; conditions: DDE = dose-dependent effect
T3 sequence (whole entry): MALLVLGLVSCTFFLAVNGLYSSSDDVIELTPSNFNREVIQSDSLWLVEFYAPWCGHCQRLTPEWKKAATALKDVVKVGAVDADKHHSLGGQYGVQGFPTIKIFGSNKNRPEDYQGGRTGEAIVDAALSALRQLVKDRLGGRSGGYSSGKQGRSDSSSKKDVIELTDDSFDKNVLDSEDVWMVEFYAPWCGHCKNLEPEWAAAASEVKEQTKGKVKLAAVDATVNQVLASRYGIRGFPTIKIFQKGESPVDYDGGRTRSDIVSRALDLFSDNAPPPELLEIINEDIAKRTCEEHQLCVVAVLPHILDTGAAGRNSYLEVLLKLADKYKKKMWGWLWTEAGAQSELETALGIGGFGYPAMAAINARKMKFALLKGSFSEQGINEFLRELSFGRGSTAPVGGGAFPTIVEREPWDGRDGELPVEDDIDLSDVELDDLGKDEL

[8] = target: T4, D-3-phosphoglycerate dehydrogenase (Homo sapiens) (UniProt O43175); assay: Binding affinity to D-3-phosphoglycerate dehydrogenase in human MDA-MB-453 cells measured after 6 hrs by pull-down assay; format: cell-based; conditions: dose <= 20.0 µM, DDE = dose-dependent effect
T4 sequence (whole entry): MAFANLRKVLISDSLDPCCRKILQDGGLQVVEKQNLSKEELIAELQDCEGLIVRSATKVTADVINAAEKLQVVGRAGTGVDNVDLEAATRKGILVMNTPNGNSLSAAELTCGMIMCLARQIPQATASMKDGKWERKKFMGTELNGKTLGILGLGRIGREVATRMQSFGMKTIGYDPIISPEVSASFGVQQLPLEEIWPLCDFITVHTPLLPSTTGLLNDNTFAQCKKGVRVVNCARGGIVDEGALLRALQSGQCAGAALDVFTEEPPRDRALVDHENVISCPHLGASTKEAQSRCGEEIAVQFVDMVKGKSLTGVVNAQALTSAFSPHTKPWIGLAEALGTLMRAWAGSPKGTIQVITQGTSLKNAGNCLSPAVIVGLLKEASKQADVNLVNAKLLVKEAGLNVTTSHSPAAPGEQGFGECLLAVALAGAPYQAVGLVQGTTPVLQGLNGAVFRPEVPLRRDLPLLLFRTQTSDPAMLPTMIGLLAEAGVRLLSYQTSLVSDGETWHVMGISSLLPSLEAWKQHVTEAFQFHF

[9] = target: T5, Peroxiredoxin-5, mitochondrial (Homo sapiens) (UniProt P30044); assay: Binding affinity to PRDX5 in human MDA-MB-453 cells measured after 6 hrs by pull-down assay; format: cell-based; conditions: dose <= 20.0 µM, DDE = dose-dependent effect
T5 sequence (whole entry): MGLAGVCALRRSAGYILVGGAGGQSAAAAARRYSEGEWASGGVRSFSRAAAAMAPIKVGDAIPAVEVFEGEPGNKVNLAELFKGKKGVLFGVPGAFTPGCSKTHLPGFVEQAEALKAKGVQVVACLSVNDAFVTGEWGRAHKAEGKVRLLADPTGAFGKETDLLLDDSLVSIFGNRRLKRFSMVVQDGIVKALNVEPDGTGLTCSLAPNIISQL

[10] = target: T1, Tubulin alpha (Homo sapiens); assay: Binding affinity to alpha-tubulin in human MDA-MB-453 cells measured after 6 hrs by pull-down assay; format: cell-based; conditions: dose <= 20.0 µM, DDE = dose-dependent effect
[11] = target: T6, Protein disulfide-isomerase A3 (Homo sapiens) (UniProt P30101); assay: Binding affinity to PDIA3 in human MDA-MB-453 cells measured after 6 hrs by pull-down assay; format: cell-based; conditions: dose <= 20.0 µM, DDE = dose-dependent effect
T6 sequence (whole entry): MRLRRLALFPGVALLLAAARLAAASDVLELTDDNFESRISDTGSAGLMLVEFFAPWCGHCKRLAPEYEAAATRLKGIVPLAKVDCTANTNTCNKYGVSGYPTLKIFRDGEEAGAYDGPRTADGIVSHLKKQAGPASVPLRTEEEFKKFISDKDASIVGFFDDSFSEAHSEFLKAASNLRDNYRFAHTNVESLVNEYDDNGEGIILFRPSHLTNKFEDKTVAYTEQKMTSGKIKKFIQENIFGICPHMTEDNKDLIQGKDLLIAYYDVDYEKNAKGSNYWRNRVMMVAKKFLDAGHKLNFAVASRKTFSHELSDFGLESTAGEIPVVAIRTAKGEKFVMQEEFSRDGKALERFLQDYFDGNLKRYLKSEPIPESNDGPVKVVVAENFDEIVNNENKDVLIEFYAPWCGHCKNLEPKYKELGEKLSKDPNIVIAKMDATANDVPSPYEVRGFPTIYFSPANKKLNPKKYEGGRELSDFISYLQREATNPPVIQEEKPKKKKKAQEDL

[12] = system: HepG2; assay: Cytotoxicity against human HepG2 cells measured after 72 hrs; format: functional, cell-based
[13] = system: MDA-MB-453; assay: Cytotoxicity against human MDA-MB-453 cells measured after 72 hrs; format: functional, cell-based
[14] = system: DOHH-2; assay: Induction of autophagy in human DOHH-2 cells assessed as change in transformation of LC3B1 to LC3B2 expression at 0.5 to 8 uM measured after 24 hrs by Western blot analysis; format: functional, cell-based; conditions: dose 0.5-8 µM
[15] = GSH reactivity in pH 7.4 buffer assessed as GSH adduct formation at 1 mM by HPLC analysis; format: physicochemical; conditions: pH 7.4, 1000 µM

SMILES: C#Cc1cccc(C#CS(N)(=O)=O)c1
- Activity [1]: Active
- Activity [2]: Dde
- Activity [3]: Active
- Activity [4]: Dde
- Activity [5]: Dde
- Activity [6]: Non-Toxic
- Activity [7]: Dde
- Activity [8]: Dde
- Activity [9]: Dde
- Activity [10]: Dde
- Activity [11]: Dde
- Activity [12]: Active
- Activity [13]: Active
- Activity [14]: Active
- Activity [15]: Active
